Data reported in US20190177279A1, “CARBOXYLIC ACID AROMATIC 1,2-CYCLOPROPYLAMIDES” (Bayer Pharma Aktiengesellschaft, priority 2017, published 2019).
Like-named read-outs stand apart in the source and are kept apart here.

Tests used:
[1] = biological target: T1, native human B1 receptors (Homo sapiens, UniProt P46663); assay: Calcium flux assay (FLIPR) with IMR-90 human foetal lung fibroblasts after IL-1 induction; format: cell-based; settings: IMR-90 fibroblasts induced with human IL-1; 0.1% BSA in assay buffer; agonist Lys-(Des-Arg)-Bradykinin at EC90; read-out: hB1 IC50 IMR90
T1 construct: which express native human B1 receptors after induction with human IL-1; Coriell Institute; host or cells: IMR-90 human foetal lung fibroblasts, induced with human IL-1
T1 sequence (P46663 1-353): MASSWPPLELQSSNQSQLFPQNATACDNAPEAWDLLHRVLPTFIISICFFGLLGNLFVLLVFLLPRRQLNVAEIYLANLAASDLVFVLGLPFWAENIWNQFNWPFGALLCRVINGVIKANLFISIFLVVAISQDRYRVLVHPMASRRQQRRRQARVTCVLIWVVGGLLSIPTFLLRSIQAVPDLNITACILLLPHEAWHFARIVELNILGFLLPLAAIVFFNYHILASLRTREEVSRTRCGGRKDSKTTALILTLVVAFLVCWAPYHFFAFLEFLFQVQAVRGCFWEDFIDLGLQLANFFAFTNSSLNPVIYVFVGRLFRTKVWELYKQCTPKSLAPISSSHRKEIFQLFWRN
Experimental: Calcium Flux Assay (FLIPR) with Human Fibroblasts for Bradykinin B1 Receptor Antagonist (hB1 IMR-90 IC50)
The Calcium flux Assay was carried out utilising IMR-90 human foetal lung fibroblasts (American Type Culture Collection, Rockville, Md.; and Coriell Institute, Camden, N.J.), which express native human B1 receptors after induction with human IL-1[…].
The fibroblasts were cultured in complete growth media comprised of Dulbecco's modified Eagle's medium (DMEM; Sigma) containing 10% foetal bovine serum, 4 mM L-glutamine, and 1% nonessential amino acids. The cells were maintained in a humidified atmosphere with 5% CO2 at 37° C. and were sub-cultured at a ratio of 1:3, every other day.
For the assay, IMR-90 fibroblasts were harvested using TrypLE Express (GIBCO/Invitrogen) and seeded into 384-well plates (Corning Cellbinding Surface, Cat. 3683) at a density of 15000 cells/well. The following day, cells were treated with 0.35 ng/mL human IL-1[…] in 10% FBS/MEM for 3 h to up-regulate B1 receptors. Induced cells were loaded with fluorescent calcium indicator by incubation with 2.5 μM Fluo-4/AM (Invitrogen) at 37° C., 5% CO2 for 2 h in the presence of 2.5 mM probenecid in 1% FBS/MEM. Extracellular dye was removed by washing with assay buffer (2.5 mM probenecid and 0.1% BSA in 20 mM HEPES/HBSS without bicarbonate or phenol red, pH 7.5). Example compounds were assayed at 8 concentrations in triplicate. After addition of example compounds to the cell plate and incubation for 30 min at 28° C., the addition of B1 agonist Lys-(Des-Arg)-Bradykinin (Bachem, Brackley) at a final concentration of EC90 was carried out on the FLIPR instrument while continuously monitoring Ca^2+-dependent fluorescence at 538 nm. A peptide antagonist Lys-(Des-Arg-Leu)-Bradykinin (Bachem, Brackley) at 20 μM was used to determine the full inhibition as control. IC50 values were determined by the same way described for the FLIPR assay with recombinant cells.

[2] = biological target: T2, human B1 receptor (Homo sapiens, UniProt P46663); assay: Calcium flux assay (FLIPR) with recombinant CHO-K1 cells expressing human B1 receptor; format: cell-based; settings: agonist Lys-(Des-Arg)-Bradykinin
T2 construct: host or cells: CHO-K1
T2 sequence (P46663 1-353): T1 sequence (P46663 1-353)
Experimental: The potency to inhibit the Bradykinin B1 receptors was determined for the example compounds of this invention in a cell-based fluorescent calcium-mobilisation assay. The assay measures the ability of example compounds to inhibit Bradykinin B1 receptor agonist-induced increase of intracellular free Ca^2+ in the cell line expressing B1 receptor. Specifically, calcium indicator—loaded cells are pre-incubated in the absence or presence of different concentrations of example compounds followed by the stimulation with a selective B1 receptor agonist peptide. The change of the intracellular Ca^2+ concentration is monitored with a fluorescent plate reader FLIPR (Molecular Devices).
Calcium flux Assay (FLIPR) with recombinant cells for Bradykinin B1 receptor antagonist, either in the presence (hB1 IC50) or absence (hB1 free IC50) of 0.1% BSA in assay buffer
CHO-K1 cell line expressing human B1 receptor was purchased from Euroscreen (Gosselies, Belgium, with reference name hB1-D1). The cells were grown in Nutrient Mixture Ham's F12 (Sigma) containing 10% Foetal bovine serum (Sigma) and 400 μg/mL G418 (Sigma), 5 μg/mL puromycin (Sigma).
For the calcium flux assay, 80% confluent cells were detached from the culture vessels with Versene (Gibco), and seeded into 384-well plates (Cell binding Surface; Corning, N.Y.; #3683) at a density of 15,000 cells per well. Cells were seeded in a volume of 50 μL in medium without antibiotics and incubated overnight in a humidified atmosphere with 5% CO2 at 37° C. […] The calcium indicator loaded cells were incubated at 37° C. for 2 hrs. Extracellular dye was then removed and each well was filled with 45 μL of assay buffer. Cell plates were kept in dark until used. Example compounds were assayed at 8 concentrations in triplicate. Serial 10-fold dilutions in 100% DMSO were made at a 100-times higher concentration than the final concentration, and then diluted 1:10 in assay buffer. 5 μL of each diluted compound was added to the well of cell plates (yielding final concentration with 1% DMSO), and incubated for 30 min at 28° C. before the addition of B1 receptor agonist on the FLIPR instrument.
Agonist plates contained the agonist Lys-(Des-Arg)-Bradykinin (Bachem, Brackley) at 3.5×EC90 in assay buffer with 1% DMSO. The addition of agonist 20 μl per well to the assay plate was carried out on the FLIPR instrument while continuously monitoring Ca^2+-dependent fluorescence at 538 nm. A peptide antagonist Lys-(Des-Arg-Leu)-Bradykinin (Bachem, Brackley) at 20 µM was used to determine the full inhibition as control.
Peak fluorescence was used to determine the response to agonist obtained at each concentration of example compound by the following equation:
% Response=100*(RFU(example compound)−RFU(control)/(RFU(DMSO)−RFU(control)) • Control=full inhibition by the peptide antagonist Lys-(Des-Arg-Leu)-Bradykinin at 20 μM
The response values were plotted against the logarithm of the compound concentrations. The compounds were tested in triplicates per plate and mean values were plotted in Excel XLfit to determine IC50 values, percentage of maximal inhibition and the Hill slopes.

`O=C(O)c1cc(NC(=O)C2CC2c2ccc(Cl)cc2)cc(F)c1-c1cnn(C2CCC2)c1` (racemic) [Example 2, 5-({[2-(4-chlorophenyl)cyclopropyl]carbonyl}amino)-2-(1-cyclobutyl-1H-pyrazol-4-yl)-3-fluorobenzoic acid] showed an IC50 [1] of 0.066 µM, an IC50 ([2]; absence of 0.1% BSA in assay buffer, read-out: hB1 free IC50) of 0.022 µM and an IC50 ([2]; presence of 0.1% BSA in assay buffer, read-out: hB1 IC50) of 0.078 µM.
